Measurements taken from patent publication US6008227A, “Process for blocking 5-HT and dopamine uptake with biologically active tropane derivatives” (Wake Forest University, priority 1993, dated 1999).
Entries after “also recorded” stand apart in the source; their conditions may differ. Like-named read-outs stand apart in the source and are kept apart here.

Tests used:
5-HT transporter [1] = molecular target: T1, 5-HT transporter (Rattus norvegicus, UniProt P31652); experiment: Inhibition of [^3 H]5-HT uptake in dissociated frontal cortex cells from fetal and adult rat brain; format: cell-based; set-up: from tissue; host or cells: rat frontal cortex; conditions: for IC50: frontal cortex cells, fetal and adult rat brain; for blocking [^3 H]5-HT uptake in cortical cells, in words: FIG. 4
T1 sequence (P31652 whole entry): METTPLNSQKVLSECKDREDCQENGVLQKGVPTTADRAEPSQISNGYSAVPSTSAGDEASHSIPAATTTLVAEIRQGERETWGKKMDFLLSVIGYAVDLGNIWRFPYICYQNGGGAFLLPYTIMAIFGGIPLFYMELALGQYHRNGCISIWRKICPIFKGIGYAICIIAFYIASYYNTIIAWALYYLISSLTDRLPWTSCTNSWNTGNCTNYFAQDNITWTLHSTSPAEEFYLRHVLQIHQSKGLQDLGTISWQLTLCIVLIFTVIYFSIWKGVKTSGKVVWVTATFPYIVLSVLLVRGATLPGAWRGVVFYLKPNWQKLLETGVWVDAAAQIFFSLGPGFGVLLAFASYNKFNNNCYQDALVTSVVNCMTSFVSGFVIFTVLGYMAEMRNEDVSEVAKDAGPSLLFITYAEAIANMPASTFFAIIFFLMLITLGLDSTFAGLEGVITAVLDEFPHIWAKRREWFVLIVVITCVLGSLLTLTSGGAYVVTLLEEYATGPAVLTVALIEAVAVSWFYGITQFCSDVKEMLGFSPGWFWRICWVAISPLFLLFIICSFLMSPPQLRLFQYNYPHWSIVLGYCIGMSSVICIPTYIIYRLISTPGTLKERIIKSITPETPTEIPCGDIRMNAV

dopamine transporter [2] = molecular target: T2, dopamine transporter (Rattus norvegicus, UniProt P23977); experiment: Inhibition of [3H]dopamine uptake into dissociated striatal cells from fetal and adult rat brain; format: cell-based; conditions: for uptake ratio: 5-HT uptake IC50 / DA uptake IC50; for dopamine: 5-HT ratio: regardless of the assay used (binding or uptake); for inhibition of [3H]dopamine uptake into striatal cells, in words: FIG. 3
T2 construct: was used to label dopamine transporters in rat striatal membranes; from tissue; host or cells: rat striatal membranes
T2 sequence (P23977 whole entry): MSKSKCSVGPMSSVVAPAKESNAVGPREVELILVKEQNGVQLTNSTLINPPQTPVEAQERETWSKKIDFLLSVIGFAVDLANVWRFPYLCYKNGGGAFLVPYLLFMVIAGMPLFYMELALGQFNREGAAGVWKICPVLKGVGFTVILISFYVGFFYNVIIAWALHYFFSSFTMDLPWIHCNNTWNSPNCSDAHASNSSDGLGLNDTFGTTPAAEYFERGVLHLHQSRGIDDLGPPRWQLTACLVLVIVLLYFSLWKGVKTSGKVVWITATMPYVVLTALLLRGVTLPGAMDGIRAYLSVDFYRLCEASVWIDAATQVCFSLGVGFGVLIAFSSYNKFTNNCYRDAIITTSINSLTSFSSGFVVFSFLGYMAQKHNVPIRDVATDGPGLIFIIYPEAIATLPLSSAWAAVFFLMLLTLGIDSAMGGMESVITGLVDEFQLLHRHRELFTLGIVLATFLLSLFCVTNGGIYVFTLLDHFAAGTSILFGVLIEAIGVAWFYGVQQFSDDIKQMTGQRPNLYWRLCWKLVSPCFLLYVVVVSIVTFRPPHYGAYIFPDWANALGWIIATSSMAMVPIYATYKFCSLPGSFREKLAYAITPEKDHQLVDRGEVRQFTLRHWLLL

dopamine transporter [3] = molecular target: T2, dopamine transporter; experiment: Displacement of [^125 I]RTI-55 binding to dopamine transporters in rat striatal membranes; conditions: for binding ratio: 5-HT K1 / DA K1, higher numbers demonstrate relatively greater dopamine transporter potency; for Ki: [^125 I]RTI-55 10-20 pM, rat striatal membranes; for displacement of [^125 I]RTI-55 binding, in words: FIG. 1
5-HT transporter [4] = molecular target: T1, 5-HT transporter; experiment: Displacement of [^3 H]paroxetine binding to 5-HT transporter sites in rat frontal cortex; set-up: from tissue; host or cells: rat frontal cortex; conditions: for displacement of [^3 H]paroxetine binding, in words: FIG. 2 / text; for selectivity between dopamine and 5-HT transporters, in words: binding assays; for times more potent than cocaine at 5-HT transporter sites: vs cocaine, [^3 H]paroxetine binding; for selectivity towards the 5-HT transporter in terms of binding and inhibition, in words: binding and uptake inhibition
[5] = vs cocaine, [^125 I]RTI-55 binding
[6] = read-out: [^3 H] paroxetine K1, [^3 H]paroxetine, rat frontal cortex

## CCC(=O)[C@H]1[C@@H](c2cccc3ccccc23)C[C@@H]2CC[C@H]1N2C (relative stereo) [WF-30]
5-HT transporter [1]
  IC50: 5.43 nM
Dopamine transporter [2]
  IC50: 3.66 ± 1.91 nM
  uptake ratio: 1.46
Dopamine transporter [3]
  binding ratio: 3.91
  Ki: 5.34 ± 1.27 nM

## CCC(=O)[C@H]1[C@@H](c2ccc(C)cc2)C[C@@H]2CC[C@H]1N2C (relative stereo) [WF-11]
5-HT transporter [1]
  IC50: 310 ± 104 nM
5-HT transporter [4]
  displacement of [^3 H]paroxetine binding, in words: approximately equipotent with cocaine in displacing [^3 H]paroxetine binding
  selectivity between dopamine and 5-HT transporters, in words: relatively more selective for dopamine transporters
  times more potent than cocaine at 5-HT transporter sites: twice
Dopamine transporter [2]
  IC50: 2.21 ± 1.7 nM
  uptake ratio: 140
Dopamine transporter [2]; uptake assays
  times more potent in inhibiting dopamine uptake than 5-HT uptake: 140 times
Dopamine transporter [3]
  binding ratio: 15.9
  Ki: 8.2 ± 1.6 nM
Dopamine transporter [3]; [5]
  times more potent than cocaine in binding to dopamine transporters: 20 times

## CC(=O)[C@H]1[C@@H](c2ccc3ccccc3c2)C[C@@H]2CC[C@H]1N2C (relative stereo) [WF-32]
Dopamine transporter [3]
  binding ratio: 4.27
  Ki: 0.248 ± 0.15 nM

## CCC(=O)[C@@H]1[C@@H](c2ccc3cc(OC)ccc3c2)C[C@@H]2CC[C@H]1N2C (relative stereo) [WF-34]
5-HT transporter [4]
  Ki: 206 ± 81 nM
Dopamine transporter [3]
  binding ratio: 3.76
  Ki: 54.7 ± 15 nM

## CCC(=O)[C@H]1[C@@H](c2ccc3cc(OC)ccc3c2)C[C@@H]2CC[C@H]1N2C (relative stereo) [WF-33]
5-HT transporter [4]
  displacement of [^3 H]paroxetine binding, in words: the most potent compounds in displacing [^3 H]paroxetine binding
  times more potent than cocaine at 5-HT transporter sites: 140 times
5-HT transporter [4]; vs WF-23
  times less potent than WF-23 in displacing [^3 H]paroxetine binding: 4 times
Dopamine transporter [3]
  displacement of [^125 I]RTI-55 binding, in words: the most potent of these compounds; also recorded: equipotent in displacing [^125 I]RTI-55 binding

## CCC(=O)[C@H]1[C@@H](C2CCCCC2)C[C@@H]2CC[C@H]1N2C (relative stereo) [WF-19]
5-HT transporter [4]
  Ki: > 10000 nM

## CCc1ccc([C@H]2C[C@@H]3CC[C@H]([C@H]2C(C)=O)N3C)cc1 (relative stereo) [WF-9]
5-HT transporter [1]
  IC50: 9.5 ± 5.4 nM
5-HT transporter [4]
  selectivity towards the 5-HT transporter in terms of binding and inhibition, in words: considerable selectivity towards the 5-HT transporter
Dopamine transporter [2]
  IC50: 1160 ± 266 nM
  uptake ratio: 0.0082
Dopamine transporter [3]
  binding ratio: 0.51
  Ki: 152 ± 24 nM

## Cc1ccc([C@H]2C[C@@H]3CC[C@H]([C@@H]2C(=O)C(C)C)N3C)cc1 (relative stereo) [WF-17]
5-HT transporter [4]
  Ki: > 10000 nM
Dopamine transporter [3]
  Ki: 2130 ± 266 nM

## CCC(=O)[C@@H]1[C@@H](c2ccccc2C)C[C@@H]2CC[C@H]1N2C (relative stereo) [WF-21]
5-HT transporter [4]; [6]
  Ki: > 10000 nM

## CCC(=O)[C@H]1[C@@H](c2ccc(C)c3ccccc23)C[C@@H]2CC[C@H]1N2C (relative stereo) [WF-27]
5-HT transporter [1]
  IC50: 14.6 nM
5-HT transporter [4]
  selectivity towards the 5-HT transporter in terms of binding and inhibition, in words: considerable selectivity towards the 5-HT transporter
Dopamine transporter [2]
  IC50: 260 ± 98 nM
Dopamine transporter [3]
  binding ratio: 0.358
  Ki: 25.1 ± 0.5 nM

## CC(=O)[C@H]1[C@@H](c2cccc3ccccc23)C[C@@H]2CC[C@H]1N2C (relative stereo) [WF-8]
5-HT transporter [1]
  IC50: 4.55 nM
Dopamine transporter [2]
  IC50: 20.7 ± 7.7 nM

## CC(=O)[C@@H]1[C@@H](c2ccccc2)C[C@@H]2CC[C@H]1N2C (relative stereo) [WF-2]
5-HT transporter [4]
  Ki: > 10000 nM
Dopamine transporter [3]
  Ki: 7270 ± 1210 nM

## CCC(=O)[C@H]1[C@@H](CC)C[C@@H]2CC[C@H]1N2C (relative stereo) [WF-18]
Dopamine transporter [3]
  Ki: > 50000 nM

## CC(=O)[C@H]1[C@@H](c2ccc(F)cc2)C[C@@H]2CC[C@H]1N2C (relative stereo) [WF-7]
Dopamine transporter [3]
  binding ratio: 12.1

## COC(=O)[C@@H]1[C@@H](c2ccccc2)C[C@@H]2CC[C@H]1N2C (relative stereo) [WF-6]
Dopamine transporter [3]
  Ki: 2060 ± 545 nM

## CCC(=O)C1C(c2ccc3ccccc3c2)CC2CCC1N2C (single isomer, unassigned) [WF-23(2)]
5-HT transporter [4]
  Ki: 0.127 ± 0.05 nM
  displacement of [^3 H]paroxetine binding, in words: also potent vs. [^3 H]paroxetine binding
  selectivity between dopamine and 5-HT transporters, in words: the same as the racemic mixture of WF-23
Dopamine transporter [2]
  dopamine: 5-HT ratio: 3-4
Dopamine transporter [3]
  IC50: ~0.03 nM
  binding ratio: 3.96
  Ki: 0.032 ± 0.007 nM

## CCC(=O)[C@H]1[C@@H](c2ccc(C(C)C)cc2)C[C@@H]2CC[C@H]1N2C (relative stereo) [WF-31]
5-HT transporter [1]
  blocking [^3 H]5-HT uptake in cortical cells, in words: significantly more potent than cocaine in blocking [^3 H]5-HT uptake
  IC50: 46.9 nM
5-HT transporter [1]; uptake assays
  times more potent in inhibiting 5-HT uptake than dopamine uptake: 120 times
5-HT transporter [4]
  displacement of [^3 H]paroxetine binding, in words: significantly more potent in displacing [^3 H]paroxetine than cocaine
  selectivity towards the 5-HT transporter in terms of binding and inhibition, in words: considerable selectivity towards the 5-HT transporter
  times more potent than cocaine at 5-HT transporter sites: 8 times
5-HT transporter [4]; [6]
  Ki: 54.5 ± 8.9 nM
Dopamine transporter [2]
  inhibition of [3H]dopamine uptake into striatal cells, in words: considerably less potent in blocking [3H]dopamine uptake
Dopamine transporter [2]; read-out: DA uptake IC50, striatal cells, fetal and adult rat brain
  IC50: 5840 ± 2600 nM
Dopamine transporter [3]
  binding ratio: 0.089
  displacement of [^125 I]RTI-55 binding, in words: less potent in displacing [^125 I]RTI-55 than cocaine
Dopamine transporter [3]; read-out:
  Ki: 615 ± 98 nM
Dopamine transporter [3]; [5]
  times less potent than cocaine at dopamine transporters: 2.5 times

## CCC(=O)[C@@H]1[C@@H](c2ccc(C)cc2)C[C@@H]2CC[C@H]1N2C (relative stereo) [WF-13]
5-HT transporter [4]
  Ki: > 10000 nM
Dopamine transporter [3]
  Ki: 764 ± 84 nM

## CCC(=O)[C@H]1[C@@H](c2ccccc2C)C[C@@H]2CC[C@H]1N2C (relative stereo) [WF-22]
5-HT transporter [4]; [6]
  Ki: 1060 ± 395 nM
Dopamine transporter [3]
  binding ratio: 1.30
Dopamine transporter [3]; read-out:
  Ki: 814 ± 220 nM

## CCC(=O)[C@@H]1[C@@H](c2ccc3ccccc3c2)C[C@@H]2CC[C@H]1N2C (relative stereo) [WF-24]
Dopamine transporter [2]
  IC50: 5.9 ± 2.4 nM
Dopamine transporter [3]
  binding ratio: 6.53
  Ki: 2.51 ± 0.82 nM

## COC(=O)[C@H]1[C@@H](c2ccccc2)C[C@@H]2CC[C@H]1N2C (relative stereo) [WF-10]
Dopamine transporter [3]
  Ki: 98.8 ± 12.2 nM

## CCC(=O)C1C(c2ccc3ccccc3c2)CC2CCC1N2C (single isomer, unassigned) [WF-23(1)]
5-HT transporter [4]
  selectivity between dopamine and 5-HT transporters, in words: the same as the racemic mixture of WF-23
Dopamine transporter [3]
  binding ratio: 4.2
  Ki: 113 ± 26 nM

## CCc1ccc([C@H]2C[C@@H]3CC[C@H]([C@@H]2C(C)=O)N3C)cc1 (relative stereo) [WF-16]
5-HT transporter [4]
  Ki: > 10000 nM
Dopamine transporter [3]
  Ki: 2290 ± 360 nM

## CCC(=O)[C@H]1[C@@H](c2ccc(-c3ccccc3)cc2)C[C@@H]2CC[C@H]1N2C (relative stereo) [WF-35]
Dopamine transporter [3]
  binding ratio: 1.88

## CC(=O)[C@@H]1[C@@H](c2cccc3ccccc23)C[C@@H]2CC[C@H]1N2C (relative stereo) [WF-15]
Dopamine transporter [3]
  Ki: 97 ± 21 nM

## CC(=O)[C@H]1[C@@H](c2ccc(C)cc2)C[C@@H]2CC[C@H]1N2C (relative stereo) [WF-4]
5-HT transporter [1]
  IC50: 330 ± 75 nM
Dopamine transporter [2]
  IC50: 13.8 ± 2.6 nM
  uptake ratio: 24
Dopamine transporter [3]
  binding ratio: 12.4
  Ki: 9.8 ± 0.5 nM

## CCC(=O)[C@@H]1[C@@H](CC)C[C@@H]2CC[C@H]1N2C (relative stereo) [WF-14]
5-HT transporter [4]
  Ki: > 10000 nM
Dopamine transporter [3]
  Ki: > 50000 nM

## CCC(=O)[C@H]1[C@@H](c2ccc3ccccc3c2)C[C@@H]2CC[C@H]1N2C (relative stereo) [WF-23]
5-HT transporter [1]
  blocking [^3 H]5-HT uptake in cortical cells, in words: significantly more potent than cocaine in blocking [^3 H]5-HT uptake
  IC50: 0.27 nM
5-HT transporter [4]
  Ki: 0.63 ± 0.2 nM
  displacement of [^3 H]paroxetine binding, in words: the most potent compounds in displacing [^3 H]paroxetine binding
  selectivity between dopamine and 5-HT transporters, in words: like cocaine, with little selectivity between the two transporters
  times more potent than cocaine at 5-HT transporter sites: 480 times
Dopamine transporter [2]
  IC50: 0.027 ± 0.016 nM
  uptake ratio: 10.0
  inhibition of [3H]dopamine uptake into striatal cells, in words: the most potent analog in inhibiting dopamine uptake
  dopamine: 5-HT ratio: 3-4
Dopamine transporter [3]
  binding ratio: 3.1
  Ki: 0.2 ± 0.04 nM
Dopamine transporter [3]; vs cocaine, dopamine and 5-HT transporter binding
  times more potent than cocaine at both transporters: 500-800 times

## CC(=O)[C@@H]1[C@@H](c2ccc(F)cc2)C[C@@H]2CC[C@H]1N2C (relative stereo) [WF-1]
5-HT transporter [4]
  Ki: > 10000 nM
Dopamine transporter [3]
  Ki: 929 ± 160 nM

## CC(=O)[C@@H]1[C@@H](c2ccc(C)cc2)C[C@@H]2CC[C@H]1N2C (relative stereo) [WF-3]
5-HT transporter [4]
  Ki: > 10000 nM
Dopamine transporter [3]
  Ki: 775 ± 57 nM

## CCC(=O)[C@H]1[C@@H](c2ccc(C(C)(C)C)cc2)C[C@@H]2CC[C@H]1N2C (relative stereo) [WF-26]
Dopamine transporter [3]
  binding ratio: 0.84
